Laboratory results reported in patent publication US20160296529A1, “AMINOTRIAZOLOPYRIDINE FOR USE IN THE TREATMENT OF INFLAMMATION, AND PHARMACEUTICAL COMPOSITIONS THEREOF” (priority 2012, published 2016).

Assays:
[1] = system: hepatocytes of mouse; test: In vitro metabolism study in hepatocytes, mouse; format: in vitro ADME; details: mouse hepatocyte suspension, 24 h incubation of 100 μM [14C]-Formula II
Method: (§1) Hepatocyte stability (Concentrations of the compound according to Formula II and its main metabolites (as % of total radioactivity) after 24 h incubation of 100 μM [^14C]-Compound according to Formula II in hepatocyte suspension of different species)

[2] = system: hepatocytes of human; test: In vitro metabolism study in hepatocytes, human; format: in vitro ADME; details: human hepatocyte suspension, 24 h incubation of 100 μM [14C]-Formula II
Method: as §1

[3] = Single dose pharmacokinetics in animals, rabbit; format: in vivo, New Zealand White rabbits
Method: (§2) Pharmacokinetic studies were performed in various animal species dosed with the compound according to Formula II to determine the exposure to the compound according to Formula I as well as its apparent terminal half life (T1/2), when possible.
Sprague-Dawley rats (male, 200-250 g), CD1 mice (male, 25-30 g), Beagle dogs (male, 9-10 kg), Göttingen minipigs (male, […]) were acclimatized for at least 7 days before treatment and were kept on a 12 hr light/dark cycle (07 h00-19 h00).
Temperature was maintained at approximately 22° C., and food and water were provided ad libitum. […]
(§3) Blood samples were collected over a 24-h period via the jugular vein (dog, minipig), ear blood vessel (rabbit), cardiac puncture (mouse) or retro-orbital sinus (rat) with lithium heparin as anti-coagulant. Whole blood samples were centrifuged and the resulting plasma samples were stored at −20° C. pending analysis.
(§4) Plasma concentrations of the compound according to Formula I and of the compound according to Formula II were determined by an LC-MS/MS method with a limit of quantification ≦10.0 ng/mL for both Formula I and Formula II for all species.
(§5) Pharmacokinetic parameters were calculated using a statistical analysis package (WinNonLin (Pharsight, Sunnyvale, Calif.: CA 94086, USA).

[4] = Single dose pharmacokinetics in animals, minipig; format: in vivo, Göttingen minipigs; details: after Formula II 30 mg/kg oral; for AUC: male, Göttingen, plasma, read-out: exposure (expressed as AUC)
Method: as §2
Sprague-Dawley rats (male, 200-250 g), CD1 mice (male, 25-30 g), Beagle dogs (male, 9-10 kg), Göttingen minipigs (male, 10-15 kg) and New Zealand White rabbits (male, 3-5 kg) were acclimatized for at least 7 days before treatment and were kept on a 12 hr light/dark cycle (07 h00-19 h00).
Temperature was maintained at approximately 22° C., and food and water were provided ad libitum.
The compound according to Formula II was formulated in 0.5% methylcellulose and dosed orally to 3 animals (or 3 mouse/time points) as a single esophageal gavage at dose ranging from 15 to 45 mg/kg under a dosing volume of 5 or 10 mL/kg.
as §3, §4, §5

[5] = Repeated dose pharmacokinetics in human; format: in vivo; details: for Ratio I/II (AUC Formula I : AUC Formula II) / AUC: human, steady state; for half-life at 10 days: oral, human plasma, repeated dose of Formula II (25-100 mg BID or 200-450 mg QD) for 10 days, read-out: mean apparent terminal elimination half-life; for AUC: plasma, po, read-out: Exposure (expressed as AUC)
Method: Subjects received repeated dose (25, 50 and 100 mg BID or 200, 300 and 450 mg QD) of the compound according to Formula II as capsules after a standard breakfast for 10 days.
Serial blood samples were collected over 12 h (BID regimen) or 24 h (QD regimen) on day 1 and 10 to determine plasma concentrations of the compounds according to Formula II and Formula I using a validated liquid chromatography-mass spectrometry/mass spectrometry (LC-MS/MS) method with a limit of quantification of 1.00 ng/mL for both Formula. PK parameters were assessed using a statistical analysis package (WinNonLin (Pharsight, Sunnyvale, Calif.: CA 94086, USA).
Mean plasma concentration-time profiles of the compound according to Formula II and the compound according to Formula I were measured.
In order to show the comparative exposures of the two compounds, the AUC of the compounds according to Formula I and the compound according to Formula II were calculated. The AUC value represents the steady state exposure of the compounds after repeated dosing. The ratio of AUC of the compound according to Formula I:AUC of the compound according to Formula II is display in Table VII.

[6] = male, New Zealand White, plasma, after Formula II 20 mg/kg oral, read-out: exposure (expressed as AUC)

Q: With `Nc1nc2cccc(-c3ccc(CN4CCS(=O)(=O)CC4)cc3)n2n1` [Formula I, 5-[4-(1,1-Dioxothiomorpholin-4-ylmethyl)-phenyl]-[1,2,4]triazolo[1,5-a]pyridin-2-ylamine] as the compound, how does the “In vitro metabolic profile of Formula II (as % of total radioactivity)” value [1] read?
A: 14%

Q: What about the “In vitro metabolic profile of Formula II (as % of total radioactivity)” value [2] of the same compound?
A: 11%

Q: What about the “In vitro metabolic profile of Formula II (as % of total radioactivity)” value ([2]; listed as drawing 11) of the same compound?
A: 11.2%

Q: And the AUC ([3]; New Zealand White, plasma, female, Formula I 125 mg/kg single oral dose, read-out: AUC)?
A: 777 µg·h/mL

Q: What about the AUC ([3]; New Zealand White, plasma, female, Formula I 250 mg/kg single oral dose, read-out: AUC) of the same compound?
A: 1030 µg·h/mL

Q: And the “Ratio I/II of exposure (AUC Formula I : AUC Formula II)” value ([3]; after Formula II 20 mg/kg oral)?
A: 0.38

Q: And the AUC [3, 6]?
A: 10 µg·h/mL

Q: And the half-life ([3]; male, New Zealand White, plasma, oral, upon administration of Formula II, read-out: apparent terminal elimination half-life (converted))?
A: 4.6 h

Q: What about the “Ratio I/II of exposure (AUC Formula I : AUC Formula II)” value [4] of the same compound?
A: 0.88

Q: What about the AUC [4] of the same compound?
A: 16.7 µg·h/mL

Q: And the “Ratio I/II (AUC Formula I : AUC Formula II)” value ([5]; Formula II 25 mg BID)?
A: 24.4

Q: And the “Ratio I/II (AUC Formula I : AUC Formula II)” value ([5]; Formula II 50 mg BID)?
A: 20.5

Q: And the “Ratio I/II (AUC Formula I : AUC Formula II)” value ([5]; Formula II 100 mg BID)?
A: 18.3

Q: And the “Ratio I/II (AUC Formula I : AUC Formula II)” value ([5]; Formula II 200 mg QD)?
A: 16.1

Q: What about the “Ratio I/II (AUC Formula I : AUC Formula II)” value ([5]; Formula II 300 mg QD) of the same compound?
A: 15.0

Q: And the “Ratio I/II (AUC Formula I : AUC Formula II)” value ([5]; Formula II 450 mg QD)?
A: 10.1

Q: And the half-life at 10 days [5]?
A: 22 to 27 h

Q: What about the AUC ([5]; Formula II 25 mg BID) of the same compound?
A: 8.66 µg·h/mL

Q: And the AUC ([5]; Formula II 50 mg BID)?
A: 15.2 µg·h/mL

Q: What about the AUC ([5]; Formula II 100 mg BID) of the same compound?
A: 41.1 µg·h/mL

Q: What about the AUC ([5]; Formula II 200 mg QD) of the same compound?
A: 70 µg·h/mL

Q: What about the AUC ([5]; Formula II 300 mg QD) of the same compound?
A: 66.1 µg·h/mL

Q: And the AUC ([5]; Formula II 450 mg QD)?
A: 102 µg·h/mL

Q: What does the source list for `O=C(Nc1nc2cccc(-c3ccc(CN4CCS(=O)(=O)CC4)cc3)n2n1)C1CC1` [Formula II, Cyclopropanecarboxylic acid {5-[4-(1,1-dioxo-thiomorpholin-4-ylmethyl)-phenyl]-[1,2,4]triazolo[1,5-a]pyridin-2-yl}-amide]?
A: In vitro metabolic profile of Formula II (as % of total radioactivity) [1]: at least 80%; In vitro metabolic profile of Formula II (as % of total radioactivity) ([1]; listed as drawing 10): 85%; In vitro metabolic profile of Formula II (as % of total radioactivity) [2]: at least 80%; In vitro metabolic profile of Formula II (as % of total radioactivity) ([2]; listed as drawing 10): 88%; AUC [3, 6]: 26 µg·h/mL; AUC [4]: 19.1 µg·h/mL; half-life at 10 days [5]: 4 to 11 h; AUC ([5]; Formula II 25 mg BID): 0.346 µg·h/mL; AUC ([5]; Formula II 50 mg BID): 0.758 µg·h/mL; AUC ([5]; Formula II 100 mg BID): 2.38 µg·h/mL; AUC ([5]; Formula II 200 mg QD): 4.45 µg·h/mL; AUC ([5]; Formula II 300 mg QD): 4.4 µg·h/mL; AUC ([5]; Formula II 450 mg QD): 10.2 µg·h/mL
